# Test results from publication PMC9782211 (Microorganisms, 2022).
# Tests used:
# human erythrocytes = assay: Hemolysis assay; format: cell-based; details: pH 7.4, 37 °C, 30 min
# Experimental: The activity of the peptides to lyse freshly isolated human erythrocytes was determined in PBS, pH 7.4 at 37 °C. Dilutions were prepared in duplicate in a round bottom microtiter plate. For that, 20 µL erythrocytes (5 · 10^8 cells/mL) was incubated with 80 µL of a peptide sample at 37 °C for 30 min in a humidified box. The hemolytic activity after incubation was measured by transferring the supernatants into another empty microtiter plate. This plate was read on a microtiter plate reader at 405 nm. Hemolytic activity was expressed as the percentage of released hemoglobin with respect to water/buffer controls (100% release) or controls processed without peptides (0% release).
# Red blood cells (RBCs) were obtained from citrated human blood by centrifugation (1500× g, 10 min), washed three times with isotonic 20 mM phosphate-NaCl buffer (pH 7.4), and suspended in the same buffer at a concentration equivalent to 5% of the normal hematocrit. […] The supernatants were analyzed spectrophotometrically (with absorbance at 543 nm) for hemoglobin, and results were expressed as the percentage released with respect to sonicated controls (100% release) or controls processed without peptides (0% release).
# [1] = tested on: human mononuclear cells (hMNCs); assay: MTT test, metabolic activity of human mononuclear cells; format: cell-based
# Experimental: Furthermore, the MTT assay was performed to determine the metabolic activity of the cells. In this test, the determination of cell viability is based on the reduction of the yellow water-soluble substance 3-(4,5-Dimethylthiazol-2-yl)-2,5-diphenyltetrazoliumbromid (MTT) into a blue-violet water-insoluble formacan.
# [2] = Maximum attainable test concentration based on solubility; format: physicochemical; details: in aqueous 1% Pluronic PE9200
# hERG ion channel = hERG ion channel (Homo sapiens, UniProt Q12809); assay: Manual patch clamp, hERG channel currents; format: cell-based; details: 1 µg/mL, fraction
# Experimental: Manual patch clamp experiments were performed in the whole cell configuration [20] at room temperature. An EPC 10 patch clamp amplifier and the PatchMaster software (v2x90.5; both HEKA Elektronik, Germany) were used. […] The data were analyzed using R (version 3.6.3).
# The manual patch clamp recordings on the hERG ion channel were performed with the same stimulation protocol as previously described, with an adjusted holding potential of −70 mV. After the establishment of the whole cell, the stimulation protocol was executed every 15 s for a period of 20 min. The application protocol had the following course: 5 min negative control period with an application of 0.1% DMSO, 10 min application of the test compound in one concentration, and 5 min positive control period with an application of E4031 (10 µM).
# The extracellular solution for the recordings contained (in mM): 145 NaCl, 4 KCl, 10 glucose, 10 HEPES, 2 CaCl2, and 1 MgCl2; pH was adjusted to 7.4 by adding NaOH. The osmolarity of the solution was adjusted to 305 mOsmol/kg. The intracellular solution contained (in mM): 120 KCl, 1.7 MgCl2, 4 K2ATP, 5 CaCl2, 10 HEPES, and 10 EGTA; pH was adjusted to 7.2 by adding KOH. The osmolarity was adjusted to 292 mOsmol/kg.
# male Wistar rats = assay: Modified Irwin test (neurobehavioral activity)
# Experimental: In this test, an examination is done whether or not drugs induce behavioural and physiologically relevant effects. […] The modified Irwin test was performed under GLP conditions and was comprised of a standard observation battery of tests addressing various parameters of the central nervous, autonomic nervous, peripheral motor, and sensory systems.
# The study comprised five treatment groups with six male animals each.
# The following investigations were made at the following time points: • Mortality: twice daily during the observation period • Clinical observations: on the day of treatment before application • Body weight development: on the day of delivery and on the day of treatment before application • Modified Irwin test: at the time points pre-test (24 h prior to administration), 1 h, 4 h, 7 h, 24 h, 48 h, and 72 h after application.
# Statistical analyses of the data were performed for each group separately. Group mean values (means) with standard deviation (SD) were calculated for body weights, each parameter of the Irwin Test, and each investigation time point.
# For Irwin Test parameters, statistical differences between the positive control group and the vehicle control group and between the test item groups and the vehicle control group were evaluated by the Mann–Whitney U-test, using an MS Excel® statistics tool developed and validated in-house; p < 0.05 was accepted as the level of significance.
# local lymph node = assay: Local lymph node assay (LLNA), skin sensitization; format: in vivo, mouse
# Experimental: • Application of substance on external surface of each ear (25 µL/ear) for 3 consecutive days • On day 6, intravenous injection of tritiated methyl thymidine (^3HTdR) in tail vein, and after about 6 h, sacrification and preparation of lymph node cell • Cell proliferation in lymph node measured by incorporation of ^3HTdR
# [3] = target: T1, hERG ion channel (gene ID 3757) (Homo sapiens, UniProt Q12809); assay: Automated planar patch clamp (QPatch), hERG in CHO cells; format: cell-based; details: for relative remaining hERG current: QPatch
# T1 construct: expressed in transfected cells
# Experimental: For automated patch clamp experiments, QPatch, a planar patch clamp robot, was used. QPatch experiments were performed as previously described. […] Patch clamp experiments were performed in the whole-cell voltage clamp mode on a planar patch clamp chip. Successfully clamped cells were stimulated with the following stimulation protocol: From a holding potential of −80 mV, the cells were partially depolarized to −50 mV to test the leak current at this potential where hERG channels are closed. This was followed by a depolarization to +40 mV. At this depolarized potential, the hERG channels alternate between the open and inactivated states. After partially repolarizing to −50 mV, the inactivated subpopulation of hERG channels rapidly recovers from inactivation and switches into the open state, from where the channels slowly close.
# Aspidasept (Pep19-2.5) was applied at nominal concentrations of 1 µg/mL, 10 µg/mL, and 100 µg/mL, and remaining hERG mediated potassium channel currents normalized to initial currents were calculated.
# T1 sequence (Q12809 whole entry): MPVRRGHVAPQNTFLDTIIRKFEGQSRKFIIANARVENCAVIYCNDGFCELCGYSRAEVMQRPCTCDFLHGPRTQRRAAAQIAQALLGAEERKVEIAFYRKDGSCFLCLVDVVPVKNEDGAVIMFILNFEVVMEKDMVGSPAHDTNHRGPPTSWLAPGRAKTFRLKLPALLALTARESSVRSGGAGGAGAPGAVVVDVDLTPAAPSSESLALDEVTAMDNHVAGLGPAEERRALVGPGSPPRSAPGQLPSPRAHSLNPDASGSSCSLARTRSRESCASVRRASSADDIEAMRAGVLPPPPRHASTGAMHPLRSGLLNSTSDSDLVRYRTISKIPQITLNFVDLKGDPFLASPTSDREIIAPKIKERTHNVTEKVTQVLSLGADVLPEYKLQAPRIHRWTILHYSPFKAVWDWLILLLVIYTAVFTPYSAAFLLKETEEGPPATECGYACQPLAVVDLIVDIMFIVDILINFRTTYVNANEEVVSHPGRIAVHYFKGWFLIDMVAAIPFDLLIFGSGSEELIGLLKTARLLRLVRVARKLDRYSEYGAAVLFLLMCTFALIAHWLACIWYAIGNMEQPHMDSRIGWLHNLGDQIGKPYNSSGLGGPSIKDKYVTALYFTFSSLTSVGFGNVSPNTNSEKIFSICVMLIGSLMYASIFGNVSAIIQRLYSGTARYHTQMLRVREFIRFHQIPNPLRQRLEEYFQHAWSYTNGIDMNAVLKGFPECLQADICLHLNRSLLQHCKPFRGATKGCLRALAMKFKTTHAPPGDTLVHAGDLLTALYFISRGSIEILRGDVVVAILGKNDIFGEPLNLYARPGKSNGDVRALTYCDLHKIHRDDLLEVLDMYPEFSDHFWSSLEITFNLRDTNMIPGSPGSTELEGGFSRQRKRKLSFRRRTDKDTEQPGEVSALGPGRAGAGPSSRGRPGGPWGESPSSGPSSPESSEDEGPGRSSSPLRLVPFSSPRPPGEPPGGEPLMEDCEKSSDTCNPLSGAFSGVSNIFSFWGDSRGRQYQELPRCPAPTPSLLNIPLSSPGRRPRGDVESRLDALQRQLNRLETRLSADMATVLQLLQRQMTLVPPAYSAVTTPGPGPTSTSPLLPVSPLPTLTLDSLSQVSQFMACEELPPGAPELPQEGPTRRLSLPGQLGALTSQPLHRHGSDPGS
# Sequence of hERG ion channel (Q12809 whole entry): as above
smiles,measurement,setting,value
N=C(N)NCCC[C@H](NC(=O)[C@H](Cc1ccc(O)cc1)NC(=O)[C@H](CCCCN)NC(=O)[C@H](CCCCN)NC(=O)[C@H](CS)NC(=O)CN)C(=O)N[C@@H](CCCNC(=N)N)C(=O)N[C@@H](Cc1ccccc1)C(=O)N[C@@H](CCCNC(=N)N)C(=O)N[C@@H](Cc1c[nH]c2ccccc12)C(=O)N[C@@H](CCCCN)C(=O)N[C@@H](Cc1ccccc1)C(=O)N[C@@H](CCCCN)C(=O)NCC(=O)N[C@@H](CCCCN)C(=O)N[C@@H](Cc1ccccc1)C(=O)N[C@@H](Cc1c[nH]c2ccccc12)C(=O)N[C@@H](Cc1ccccc1)C(=O)N[C@@H](Cc1c[nH]c2ccccc12)C(=O)NCC(N)=O [Pep19-2.5],lysis of erythrocytes,"human erythrocytes; at 100 μg/mL, released hemoglobin vs 100% release control",≤ 20%
same,concentration above which cytotoxicity increases (hemolysis),human erythrocytes,above 20 μg/mL
same,metabolic state of the hMNC,[1]; at 100 μg/mL,decreases dramatically
same,concentration above which cytotoxicity increases (MTT),"[1]; hMNC, MTT test, Figure 1",above 20 μg/mL
same,maximum attainable test concentration based on solubility,[2],5 % (w/v)
same,Rel. Rem. Current ± SD (Manual Patch-Clamp),hERG ion channel,1.00 ± 0.04
same,"spontaneous locomotor activity, median score","male Wistar rats; 0.02 mg/kg b.w., 1 h, negative control 0.0, not significant",−0.5
same,"positional passivity, median score","male Wistar rats; 0.02 mg/kg, 1 h, saline 1.0, p < 0.05",0.0
same,"hind limb tone, median score","male Wistar rats; 0.02 mg/kg, 72 h, negative control 1.0",2.0
same,"spontaneous locomotor activity, median score","male Wistar rats; 0.2 mg/kg b.w., 48 and 72 h, saline −1.0, p < 0.05 at 72 h",0.5
same,"spontaneous locomotor activity, median score","male Wistar rats; 0.2 mg/kg b.w., 1 h, negative control 0.0, not significant",−1.0
same,"head touch, median score","male Wistar rats; 0.2 mg/kg, 7 h, saline −1.0, p < 0.01",0.0
same,"rearing, median score","male Wistar rats; 0.2 mg/kg, 48 h, saline −1.0, p < 0.05",1.0
same,"finger approach, median score","male Wistar rats; 0.2 mg/kg, 72 h, saline 0.0, p < 0.05",2.0
same,"rearing, median score","male Wistar rats; 0.2 mg/kg, 72 h, saline −1.0, p < 0.01",1.0
same,"spontaneous locomotor activity, median score","male Wistar rats; 2 mg/kg b.w., 1 h, negative control 0.0, not significant",−1.0
same,effect in Irwin test,male Wistar rats; high dose 2 mg/kg single i.v.,"Significant differences were also observed in the high dose group (2 mg/kg), in terms of sensitivity to pinching the tail and vocalization when touched and hind limb reflex"
same,"vocalization when touched, median score","male Wistar rats; high dose 2 mg/kg, 1 and 24 h, control 0.0, p < 0.05",1.0
same,"sensitivity to pinching of the tail, median score","male Wistar rats; high dose 2 mg/kg, 1 h, negative control 0.0, p < 0.01",−1.5
same,"sensitivity to pinching of the tail, median score","male Wistar rats; high dose 2 mg/kg, 7 h, saline 0.0, p < 0.05",−1.5
same,effect in Irwin test,male Wistar rats; low dose 0.02 mg/kg single i.v.,No effect
same,"sensitivity to pinching of the tail, median score","male Wistar rats; low dose 0.02 mg/kg, 1 h",0.0
same,effect in Irwin test,male Wistar rats; mid dose 0.2 mg/kg single i.v.,"significant differences to the negative control were noted in rearing, spontaneous locomotor activity and sensitivity to pinching the tail"
same,"sensitivity to pinching of the tail, median score","male Wistar rats; mid dose 0.2 mg/kg, 1 h",−1.5
same,neurobehavioral effects overall,"male Wistar rats; single i.v., 0.02, 0.2 and 2 mg/kg",No relevant neurobehavioral effects
same,skin sensitization potential,"local lymph node; 5%, 2.5%, 1% and 0.5% (w/v) in 1% Pluronic aqueous solution, 25 µL/ear, 3 consecutive days, 3HTdR incorporation",no skin sensitization potential
same,preliminary irritation/toxicity test,local lymph node; up to 5% (w/v) in aqueous 1% Pluronic,no adverse effect
same,Rel. Rem. Current ± SD (QPatch),"[3]; 1 µg/mL, fraction",0.97 ± 0.02
same,"Rel. Rem. Current (QPatch, 20 min Application)","[3]; 10 µg/mL, fraction",0.92
same,Rel. Rem. Current ± SD (QPatch),"[3]; 10 µg/mL, fraction",0.95 ± 0.02
same,relative remaining hERG current,[3]; 1 µg/mL (Aspidasept n = 4; Pep19-4LF n = 3),97.2 ± 2.2%
same,relative remaining hERG current,[3]; 10 µg/mL (Aspidasept n = 4; Pep19-4LF n = 1),95.2 ± 2.5%
same,relative remaining hERG current,[3]; 10 µg/mL applied for up to 20 min,92.2%
same,IC50,"[3]; estimated, no significant effect at highest concentration tested (10 µg/mL), read-out: hypothetical IC50 on hERG-mediated potassium current",> 3.69 µM
